Test results from patent publication US10172868B2, “Substituted quinazolines for inhibiting kinase activity” (NeuPharma, Inc., priority 2013, dated 2019).

Experiments:
EGFR (ErbB1) = EGFR (ErbB1) (Homo sapiens (Human), UniProt P00533); test: Z'-LYTE kinase inhibition assay, EGFR; format: biochemical; settings: read-out: % inhibition against EGFR (Compound at 0.041 μM)
Experimental: Inhibitory activities of compounds against BTK, EGFR and EGFR mutants (EGFR L858R, EGFR T790M, EGFR L858R/T790M), FGFR1, FGFR2, JAK2, JAK3 and KDR were measured by Invitrogen using Z'-LYTE® Method as briefly described in the following. Test Compounds are screened in 1% DMSO (final) in the well. For 10 point titrations, 3-fold serial dilutions are conducted from the starting concentration. All ATP Solutions are diluted to a 4× working concentration in Kinase Buffer (50 mM HEPES pH 7.5, 0.01% BRIJ-35, 10 mM MgCl2, 1 mM EGTA). Peptide/Kinase Mixtures are diluted to a 2× working concentration in the appropriate Kinase Buffers as described below. (i) Peptide/Kinase Mixtures for Measurement of EGFR (ErbB1): The 2×EGFR (ErbB1)/[…] mixture is prepared in 50 mM HEPES pH 7.5, 0.01% BRIJ-35, 10 mM MgCl2. 4 mM MnCl2, 1 mM EGTA, 2 mM DTT. The final 10 μL Kinase Reaction consists of 1.1-5.25 ng EGFR (ErbB1) and 2 μM […] in 50 mM HEPES pH 7.5, 0.01% BRIJ-35, 10 mM MgCl2, 2 mM MnCl2. 1 mM EGTA, 1 mM DTT. After the 1 hour Kinase Reaction incubation, 5 μL of a 1:64 dilution of Development Reagent B is added. Reaction starts by 30-second shaking of mixture consisting of 2.5 μL 4× test compound, […] 2× kinase reaction mixture and 2.5 μL 4×ATP Solution on Bar-coded Corning, low volume NBS, black 384-well plate (Corning Cat. #3676). Then the mixture is incubated for 60-minute at room temperature for the kinase reaction, followed by addition of 5 μL of a 1:1024 dilution of development reagent A and 30-second plate shake. The mixture is then incubated for another 60-minute at room temperature for development reaction. Finally fluorescence is read by plate reader. To determine IC50 of a compound against EGFR, EGFR mutant and other kinases, a series of concentrations of the compound were tested for the inhibition.

EGFR (ErbB1) T790M L858R = EGFR (ErbB1) T790M L858R (Homo sapiens (Human), UniProt P00533, L858R/T790M); test: Z'-LYTE kinase inhibition assay, EGFR L858R/T790M; format: biochemical; settings: read-out: % inhibition against EGFR L858R/T790M (Compound at 0.0137 μM)
Chain of EGFR (ErbB1) T790M L858R (P00533 25-1210 T790M/L858R): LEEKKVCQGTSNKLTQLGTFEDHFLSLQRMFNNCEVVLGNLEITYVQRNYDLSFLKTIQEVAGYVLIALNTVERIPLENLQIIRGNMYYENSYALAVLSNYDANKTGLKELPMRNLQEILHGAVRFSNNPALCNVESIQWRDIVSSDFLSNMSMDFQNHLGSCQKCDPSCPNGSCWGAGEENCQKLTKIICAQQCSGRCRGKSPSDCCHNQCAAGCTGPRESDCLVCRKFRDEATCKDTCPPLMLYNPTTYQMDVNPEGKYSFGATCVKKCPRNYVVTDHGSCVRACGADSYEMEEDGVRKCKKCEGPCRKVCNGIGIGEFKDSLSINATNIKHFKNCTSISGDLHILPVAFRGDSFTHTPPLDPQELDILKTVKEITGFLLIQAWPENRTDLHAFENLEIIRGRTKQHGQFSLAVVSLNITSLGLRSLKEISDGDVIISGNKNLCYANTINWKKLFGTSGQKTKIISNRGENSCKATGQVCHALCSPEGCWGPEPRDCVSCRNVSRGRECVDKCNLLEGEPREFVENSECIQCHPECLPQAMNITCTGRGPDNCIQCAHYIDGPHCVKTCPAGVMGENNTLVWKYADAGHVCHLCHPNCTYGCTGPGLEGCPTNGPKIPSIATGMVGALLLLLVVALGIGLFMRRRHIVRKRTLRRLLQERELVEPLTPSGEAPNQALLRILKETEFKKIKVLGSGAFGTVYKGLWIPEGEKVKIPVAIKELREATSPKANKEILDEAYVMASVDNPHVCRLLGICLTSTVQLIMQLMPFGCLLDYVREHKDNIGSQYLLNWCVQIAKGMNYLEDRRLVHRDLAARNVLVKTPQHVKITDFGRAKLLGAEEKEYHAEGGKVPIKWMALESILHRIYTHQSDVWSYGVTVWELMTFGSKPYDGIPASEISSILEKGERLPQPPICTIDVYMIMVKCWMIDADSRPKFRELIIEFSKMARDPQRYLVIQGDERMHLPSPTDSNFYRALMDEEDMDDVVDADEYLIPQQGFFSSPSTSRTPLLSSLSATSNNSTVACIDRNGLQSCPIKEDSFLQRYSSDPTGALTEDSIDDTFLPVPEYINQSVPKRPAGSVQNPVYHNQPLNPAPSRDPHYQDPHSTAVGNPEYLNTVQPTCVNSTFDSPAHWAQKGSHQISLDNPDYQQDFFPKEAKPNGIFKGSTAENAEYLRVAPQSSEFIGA
Experimental: Inhibitory activities of compounds against BTK, EGFR and EGFR mutants (EGFR L858R, EGFR T790M, EGFR L858R/T790M), FGFR1, FGFR2, JAK2, JAK3 and KDR were measured by Invitrogen using Z'-LYTE® Method as briefly described in the following. Test Compounds are screened in 1% DMSO (final) in the well. For 10 point titrations, 3-fold serial dilutions are conducted from the starting concentration. All ATP Solutions are diluted to a 4× working concentration in Kinase Buffer (50 mM HEPES pH 7.5, 0.01% BRIJ-35, 10 mM MgCl2, 1 mM EGTA). Peptide/Kinase Mixtures are diluted to a 2× working concentration in the appropriate Kinase Buffers as described below. (iv) Peptide/Kinase Mixtures for Measurement of EGFR (ErbB1) T790M L858R: The 2×EGFR (ErbB1) […] mixture is prepared in 50 mM HEPES pH 6.5, 0.01% BRIJ-35, 10 mM MgCl2, 1 mM EGTA, 0.02% NaN3. […] After the 1 hour Kinase Reaction incubation, 5 μL of a 1:64 dilution of Development Reagent B is added. Reaction starts by 30-second shaking of mixture consisting of 2.5 μL 4× test compound, […] 2× kinase reaction mixture and 2.5 μL 4×ATP Solution on Bar-coded Corning, low volume NBS, black 384-well plate (Corning Cat. #3676). Then the mixture is incubated for 60-minute at room temperature for the kinase reaction, followed by addition of 5 μL of a 1:1024 dilution of development reagent A and 30-second plate shake. The mixture is then incubated for another 60-minute at room temperature for development reaction. Finally fluorescence is read by plate reader. To determine IC50 of a compound against EGFR, EGFR mutant and other kinases, a series of concentrations of the compound were tested for the inhibition.

H1975 cells = test: Inhibition of cancer cell growth, MTT assay, H1975; settings: Homo sapiens, NCI-H1975, 72 h, read-out: IC50 in H1975 cells

Chain of EGFR (ErbB1) (P00533 25-1210): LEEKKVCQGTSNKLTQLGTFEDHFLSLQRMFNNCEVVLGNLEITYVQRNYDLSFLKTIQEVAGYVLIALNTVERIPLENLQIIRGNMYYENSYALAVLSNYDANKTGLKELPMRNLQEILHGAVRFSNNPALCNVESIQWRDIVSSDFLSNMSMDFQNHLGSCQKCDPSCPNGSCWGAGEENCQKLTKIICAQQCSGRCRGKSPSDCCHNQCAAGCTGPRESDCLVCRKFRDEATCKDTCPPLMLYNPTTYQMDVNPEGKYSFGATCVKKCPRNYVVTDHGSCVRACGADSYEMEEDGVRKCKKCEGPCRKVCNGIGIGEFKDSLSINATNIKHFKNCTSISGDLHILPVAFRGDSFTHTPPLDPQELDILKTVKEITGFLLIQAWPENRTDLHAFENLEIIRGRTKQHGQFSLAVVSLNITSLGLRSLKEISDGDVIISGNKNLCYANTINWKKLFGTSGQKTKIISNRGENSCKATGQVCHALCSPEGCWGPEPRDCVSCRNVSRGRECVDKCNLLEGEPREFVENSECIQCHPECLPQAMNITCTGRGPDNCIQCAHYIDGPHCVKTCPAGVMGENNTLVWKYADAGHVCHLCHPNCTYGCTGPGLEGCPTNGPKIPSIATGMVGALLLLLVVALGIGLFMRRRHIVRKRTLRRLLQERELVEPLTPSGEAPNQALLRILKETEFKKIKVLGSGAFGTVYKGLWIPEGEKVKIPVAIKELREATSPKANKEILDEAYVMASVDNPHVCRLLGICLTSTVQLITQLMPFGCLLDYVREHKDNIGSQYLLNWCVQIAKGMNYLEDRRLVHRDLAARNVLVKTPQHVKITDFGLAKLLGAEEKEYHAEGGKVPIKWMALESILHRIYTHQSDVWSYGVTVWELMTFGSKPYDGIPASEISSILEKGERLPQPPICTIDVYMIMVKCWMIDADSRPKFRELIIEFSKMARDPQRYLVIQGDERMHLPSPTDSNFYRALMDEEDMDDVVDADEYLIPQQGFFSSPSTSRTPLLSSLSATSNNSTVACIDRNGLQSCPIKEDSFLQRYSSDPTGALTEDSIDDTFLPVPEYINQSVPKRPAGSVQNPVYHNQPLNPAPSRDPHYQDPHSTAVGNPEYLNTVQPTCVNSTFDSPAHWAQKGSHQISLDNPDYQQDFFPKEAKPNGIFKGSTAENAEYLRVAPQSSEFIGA

| inhibition at 0.041 µM (EGFR (ErbB1)) [%] | inhibition at 0.0137 µM (EGFR (ErbB1) T790M L858R) [%] | IC50 (H1975 cells) [µM] | Compound |
| --- | --- | --- | --- |
| < 50 | < 50 | < 0.1 | C=CC(=O)Nc1cccc(-c2cccc3cnc(Nc4ccc(N5CCN(CCOC)CC5)cc4F)nc23)c1 [Example C153, N-(3-(2-((2-fluoro-4-(4-(2-methoxyethyl)piperazin-1-yl)phenyl)amino)quinazolin-8-yl)phenyl)acrylamide] |
| < 50 | < 50 | 0.1 to 0.5 | C=CC(=O)Nc1cccc(-c2cccc3cnc(Nc4ccc(N(C)CCF)cc4)nc23)c1F [Example C065, N-(2-fluoro-3-(2-((4-((2-fluoroethyl)(methyl)amino)phenyl)amino)quinazolin-8-yl)phenyl)acrylamide] |
| < 50 | > 50 | 0.1 to 0.5 | C=CC(=O)Nc1cccc(-c2cccc3cnc(Nc4ccc(N5CCN(C(=O)CO)CC5)cc4)nc23)c1 [Example C082, N-(3-(2-((4-(4-(2-hydroxyacetyl)piperazin-1-yl)phenyl)amino)quinazolin-8-yl)phenyl)acrylamide] |
| < 50 | > 50 | < 0.1 | C=CC(=O)Nc1cccc(-c2cccc3cnc(Nc4cc(F)c(N5CCN(C)CC5)c(F)c4)nc23)c1 [Example C146, N-(3-(2-((3,5-difluoro-4-(4-methylpiperazin-1-yl)phenyl)amino)quinazolin-8-yl)phenyl)acrylamide] |
| < 50 | < 50 | > 0.5 | C=CC(=O)Nc1cccc(-c2cccc3cnc(Nc4ccc(N5CCN(C(=O)OC)CC5)cc4)nc23)c1 [Example C076, methyl 4-(4-((8-(3-acrylamidophenyl)quinazolin-2-yl)amino)phenyl)piperazine-1-carboxylate] |
|  | < 50 | > 0.5 | C=CC(=O)Nc1cccc(-c2cccc3cnc(Nc4ccc(-c5cn[nH]c5)cc4)nc23)c1 [Example C159, N-(3-(2-((4-(1H-pyrazol-4-yl)phenyl)amino)quinazolin-8-yl)phenyl)acrylamide] |
|  | < 50 | 0.1 to 0.5 | C=CC(=O)Nc1cccc(-c2cccc3cnc(Nc4ccc(-n5cccn5)cc4)nc23)c1 [Example C158, N-(3-(2-((4-(1H-pyrazol-1-yl)phenyl)amino)quinazolin-8-yl)phenyl)acrylamide] |

The next lines start with the compound.

| Compound | inhibition at 0.041 µM (EGFR (ErbB1)) [%] | inhibition at 0.0137 µM (EGFR (ErbB1) T790M L858R) [%] | IC50 (H1975 cells) [µM] |
| --- | --- | --- | --- |
| C=CC(=O)Nc1cccc(-c2cccc3cnc(Nc4c(F)cc(N5CCN(C)CC5)cc4F)nc23)c1 [Example C148, N-(3-(2-((2,6-difluoro-4-(4-methylpiperazin-1-yl)phenyl)amino)quinazolin-8-yl)phenyl)acrylamide] | < 50 | < 50 | < 0.1 |
| C=CC(=O)N1CCC=C(c2cccc3cnc(Nc4ccc(N5CCN(C)CC5)cc4)nc23)C1 [Example C071, 1-(3-(2-((4-(4-methylpiperazin-1-yl)phenyl)amino)quinazolin-8-yl)-5,6-dihydropyridin-1(2H)-yl)prop-2-en-1-one] | < 50 | < 50 | > 0.5 |
| C=CC(=O)Nc1cccc(-c2cccc3cnc(Nc4ccc(N5CCN(CC(N)=O)CC5)cc4F)nc23)c1 [Example C154, N-(3-(2-((4-(4-(2-amino-2-oxoethyl)piperazin-1-yl)-2-fluorophenyl)amino)quinazolin-8-yl)phenyl)acrylamide] | < 50 | < 50 | 0.1 to 0.5 |
| C=CC(=O)Nc1cccc(-c2cccc3cnc(Nc4ccc(N5CCOCC5=O)cc4)nc23)c1 [Example C095, N-(3-(2-((4-(3-oxomorpholino)phenyl)amino)quinazolin-8-yl)phenyl)acrylamide] | < 50 | < 50 | 0.1 to 0.5 |
| C=CC(=O)Nc1cccc(-c2cccc3cnc(Nc4ccc(N[C@H]5CCN(C(C)=O)C5)cc4)nc23)c1 [Example C128, (S)-N-(3-(2-((4-((1-acetylpyrrolidin-3-yl)amino)phenyl)amino)quinazolin-8-yl)phenyl)acrylamide] | < 50 | < 50 | < 0.1 |
| C=CC(=O)Nc1cccc(-c2cccc3cnc(Nc4ccc(N[C@@H]5CCN(C(C)=O)C5)cc4)nc23)c1 [Example C130, (R)-N-(3-(2-((4-((1-acetylpyrrolidin-3-yl)amino)phenyl)amino)quinazolin-8-yl)phenyl)acrylamide] | < 50 | < 50 | < 0.1 |
| C=CC(=O)Nc1cccc(-c2cccc3cnc(Nc4ccc(N5CCN(C)CC5)cc4)nc23)c1C(=O)OC [Example C101, methyl 2-acrylamido-6-(2-((4-(4-methylpiperazin-1-yl)phenyl)amino)quinazolin-8-yl)benzoate] | < 50 | > 50 | < 0.1 |
| C=CC(=O)Nc1cccc(-c2cccc3cnc(Nc4ccc(N5CCN(C)C(C(=O)O)C5)cc4)nc23)c1 (stereo not shown) [Example C090, 4-(4-((8-(3-acrylamidophenyl)quinazolin-2-yl)amino)phenyl)-1-methylpiperazine-2-carboxylic acid] | < 50 | > 50 | 0.1 to 0.5 |
| C=CC(=O)Nc1cccc(-c2cccc3cnc(Nc4ccc(N5CCN(C(=O)CC)CC5)cc4)nc23)c1 [Example C084, N-(3-(2-((4-(4-propionylpiperazin-1-yl)phenyl)amino)quinazolin-8-yl)phenyl)acrylamide] | < 50 | > 50 | 0.1 to 0.5 |
| C=CC(=O)Nc1cccc(-c2cccc3cnc(Nc4ccc(OC5CCN(CCF)CC5)cc4F)nc23)c1 [Example C157, N-(3-(2-((2-fluoro-4-((1-(2-fluoroethyl)piperidin-4-yl)oxy)phenyl)amino)quinazolin-8-yl)phenyl)acrylamide] |  | < 50 | > 0.5 |
| C=CC(=O)Nc1cccc(-c2cccc3cnc(Nc4cc(F)c(N5CCN(C)CC5)cc4F)nc23)c1 [Example C160, N-(3-(2-((2,5-difluoro-4-(4-methylpiperazin-1-yl)phenyl)amino)quinazolin-8-yl)phenyl)acrylamide] |  | < 50 | 0.1 to 0.5 |
| C=CC(=O)Nc1cccc(-c2cccc3cnc(Nc4cc(F)c(N5CCN(CC(C)(C)O)CC5)cc4F)nc23)c1 [Example C163, N-(3-(2-((2,5-difluoro-4-(4-(2-hydroxy-2-methylpropyl)piperazin-1-yl)phenyl)amino)quinazolin-8-yl)phenyl)acrylamide] |  |  | 0.1 to 0.5 |
| C=CC(=O)Nc1cccc(-c2cccc3cnc(Nc4ccc(N5CCN(CCO)CC5)c(F)c4)nc23)c1 [Example C142, N-(3-(2-((3-fluoro-4-(4-(2-hydroxyethyl)piperazin-1-yl)phenyl)amino)quinazolin-8-yl)phenyl)acrylamide] |  |  | < 0.1 |
